Read-outs that look alike come from different tables or passages of the source.
How the values were obtained:
[1] = tested on: White male CD 1 (Charles River) mice; experiment: Nootropic activity: "Passive avoidance" test (amnesia induced by scopolamine); format: in vivo; settings: scopolamine 2 mg/kg i.p.
[2] = tested on: Male Wistar (Charles River) rats; experiment: Locomotor activity: "Activity cage" test; format: in vivo; settings: Rattus norvegicus, ip, read-out: DE50 (ED50 for % increase of spontaneous motion activity)
Excerpt: This test allows the spontaneous locomotor activity of the animal to be studied. Male Wistar (Charles River) rats weighing 150-250 g were used. […] The printer connected to the system records the number of movements performed by the rats within the first 5' from the moment they enter the cage.

[3] = tested on: White male CD 1 (Charles River) mice; experiment: Antidepressant activity: "Behavioral despair" test (Porsolt); format: in vivo; settings: relative to control group
Description: The test described in R. D. Porsolt et al., Arch.Int.Pharmacodyn. 229, 327 (1977), which allows the antidepressant activity of a drug to be evaluated on an animal placed in an unusual, stress-causing environment, such as the water environment, was carried out. White male CD 1 (Charles River) mice weighing 24-35 g were used.
1 h before the immersion in water, the animal is administered the test compound by the intraperitoneal (i.p.) route. […] As the reference substances the xanthines theophylline and caffeine, the nootropically acting drug oxiracetam and the tricyclic antidepressant desipramine were included.

[4] = tested on: Male white CD 1 (Charles River) mice; experiment: Antidepressant activity: antagonism to reserpine (hypothermia induced by reserpine); format: in vivo; settings: 4 h after reserpine 2.5 mg/kg i.p.
Description: Male white CD 1 (Charles River) mices weighing 23-35 g were used. Before every test, the basal rectal temperature of every mouse is registered. […] The rectal temperature is measured again at t=O and 30', 60', 90' and 120' after administration of the drug.

adenosine A1 receptors = target: T1, adenosine A1 receptors (Rattus norvegicus, UniProt P25099); experiment: Binding to the adenosine A1 receptors, (3H)-DPCPX displacement, synaptosomal membranes from rat brain; settings: for Ki: rat brain synaptosomal membranes, 0.3 nM (3H)-DPCPX, 1 h at 25° C., pH 7.4, Ki from IC50 via Cheng-Prusoff
T1 construct: preparations of sinaptosomial membranes from rat brain; from tissue; host or cells: rat brain synaptosomal membranes
T1 sequence (P25099 1-326): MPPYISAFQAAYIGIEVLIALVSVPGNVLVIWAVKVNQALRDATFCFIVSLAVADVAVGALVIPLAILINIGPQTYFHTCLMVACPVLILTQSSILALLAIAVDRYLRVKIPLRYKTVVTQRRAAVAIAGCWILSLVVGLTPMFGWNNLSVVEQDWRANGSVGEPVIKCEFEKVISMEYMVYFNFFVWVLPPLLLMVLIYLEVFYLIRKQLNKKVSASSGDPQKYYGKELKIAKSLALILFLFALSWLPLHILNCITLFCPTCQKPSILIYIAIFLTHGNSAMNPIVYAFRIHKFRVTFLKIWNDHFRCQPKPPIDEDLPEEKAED
Description: The receptor binding tests were carried out on preparations of sinaptosomial membranes from rat brain. Binding to the A1 receptors has been carried out as follows: 200 μg of membrane proteins were incubated for 1 h at 25° C. with the test substance and 0.3 nM (3H)-DPCPX in 400 μl of 50 mM tris-HCl pH=7.4. The non-specific binding was determined with 20 μM R-PIA. The binding to the A2 receptors was carried out by incubating 200 μg of membrane proteins for 1 h at 25° C. with the test substance, 4 nM (3H)-NECA and 50 nM CPA. The non-specific binding was determined with 200 μM CPA. The incubations were blocked by centrifugal methods and the separation of the bound from free material was carried out, followed by determination of the contained radioactivity by liquid scintillation. The dosis-inhibition curves were obtained by assaying the receptor displacement at 14 different concentrations of the test substance (all the tests are carried out in triplicate). The tested substances were dissolved into dimethylsulfoxide and diluted in 50 mM Tris-HCl, buffer pH=7.4. The IC50 values were determined by means of non-linear regression curves and transformed into Ki values according to the Cheng-Prusoff equation.

adenosine A2 receptors = target: T2, adenosine A2 receptors (Rattus norvegicus, UniProt P30543); experiment: Binding to the adenosine A2 receptors, (3H)-NECA + 50 nM CPA, synaptosomal membranes from rat brain; settings: 4 nM (3H)-NECA and 50 nM CPA, 1 h at 25° C., Ki from IC50 via Cheng-Prusoff
T2 construct: preparations of sinaptosomial membranes from rat brain; from tissue; host or cells: rat brain synaptosomal membranes
T2 sequence (P30543 whole entry): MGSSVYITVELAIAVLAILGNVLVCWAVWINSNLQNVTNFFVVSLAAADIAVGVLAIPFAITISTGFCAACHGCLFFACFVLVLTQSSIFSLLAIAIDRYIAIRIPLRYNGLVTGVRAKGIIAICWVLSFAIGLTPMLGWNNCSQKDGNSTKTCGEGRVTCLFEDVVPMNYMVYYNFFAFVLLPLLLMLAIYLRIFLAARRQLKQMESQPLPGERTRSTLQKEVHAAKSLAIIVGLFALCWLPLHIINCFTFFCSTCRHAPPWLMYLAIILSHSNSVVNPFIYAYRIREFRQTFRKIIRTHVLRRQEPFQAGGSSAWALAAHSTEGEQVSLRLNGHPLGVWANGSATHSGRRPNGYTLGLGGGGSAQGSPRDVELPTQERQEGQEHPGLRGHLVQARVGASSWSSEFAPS
Description: The receptor binding tests were carried out on preparations of sinaptosomial membranes from rat brain.
200 μg of membrane proteins were incubated for 1 h at 25° C. with the test substance and 0.3 nM (3H)-DPCPX in 400 μl of 50 mM tris-HCl pH=7.4. The non-specific binding was determined with 20 μM R-PIA. The binding to the A2 receptors was carried out by incubating 200 μg of membrane proteins for 1 h at 25° C. with the test substance, 4 nM (3H)-NECA and 50 nM CPA. The non-specific binding was determined with 200 μM CPA.
The incubations were blocked by centrifugal methods and the separation of the bound from free material was carried out, followed by determination of the contained radioactivity by liquid scintillation. The dosis-inhibition curves were obtained by assaying the receptor displacement at 14 different concentrations of the test substance (all the tests are carried out in triplicate). The tested substances were dissolved into dimethylsulfoxide and diluted in 50 mM Tris-HCl, buffer pH=7.4. The IC50 values were determined by means of non-linear regression curves and transformed into Ki values according to the Cheng-Prusoff equation.

[5] = dose 10 (unit not given), i.p. 1 h before acquisition trial
[6] = 30' before activity cage, movements within first 5', relative to control group
[7] = 10 mg/kg i.p., 1 h before immersion

Cn1c(=O)c2[nH]c(-c3ccccc3)nc2n(C)c1=O [8-PHENYLTHEOPHYLINE]
ANTIAMNESIC ACTIVITY (percentage of animals that do not trespass the door) [1, 5]: 40% | ED50 [2, 6]: 6.01 mg/kg

Cn1c(=O)c2c(ncn2C)n(C)c1=O [CAFFEINE]
% VARIATION OF MOTI[…] LENGTH ([3]; 25 mg/kg (os)): -30.34% | Δ TEMPERATURE (maximum temperature variation relative to t=0) ([4]; 20 mg/kg i.p.): +1.63 °C | ANTIAMNESIC ACTIVITY (percentage of animals that do not trespass the door) [1, 5]: 60% | ED50 [2]: 4.33 mg/kg

CCCn1c(=O)c2[nH]c(C3(N)CCCC3)nc2n(CCC)c1=O [COMPOUND EX. 1, 8-(1-aminocyclopentyl)-1,3-dipropylxanthine]
Ki (adenosine A1 receptors): 0.026 µM | SELECTIVITY (A2/A1) (adenosine A1 receptors; ratio of Ki,A2 to Ki,A1): 2100 | Ki (adenosine A2 receptors): 54.6 µM | % VARIATION OF MOTIONLESSNESS TIME LENGTH [3, 7]: -28.33% | % VARIATION OF MOTIONLESSNESS TIME LENGTH ([3]; 20 mg/kg i.p., 1 h before immersion): -42.93% | Δ TEMPERATURE (maximum temperature variation relative to t=0) ([4]; 10 mg/kg i.p.): +0.26 °C | Δ TEMPERATURE (maximum temperature variation relative to t=0) ([4]; 20 mg/kg i.p.): +0.71 °C | ANTIAMNESIC ACTIVITY (percentage of animals that do not trespass the door) [1, 5]: 80% | ED50 [2, 6]: 0.492 mg/kg

CCCn1c(=O)c2[nH]c(C3(NC(=O)c4ccccc4)CCCC3)nc2n(CCC)c1=O [COMPOUND EX. 6, 8-(1-benzoylaminocyclopentyl)-1,3-dipropylxanthine]
Ki (adenosine A1 receptors): 0.115 µM | % VARIATION OF MOTIONLESSNESS TIME LENGTH [3, 7]: -24.22%

CCCn1c(=O)c2[nH]c(C3(NS(C)(=O)=O)CCCC3)nc2n(CCC)c1=O [COMPOUND EX. 8, 1,3-dipropyl-8-(1-methanesulfonylaminocyclopenthyl)xanthine]
Ki (adenosine A1 receptors): 0.166 µM

CCCn1c(=O)c2[nH]c(C3(NC(=O)OCC)CCCC3)nc2n(CCC)c1=O [COMPOUND EX. 10, 1,3-dipropyl-8-(1(N-ethoxycarbonylamino)cyclopentyl)xanthine]
Ki (adenosine A1 receptors): 0.108 µM

CCCn1c(=O)c2[nH]c(C3(NC(=O)CC(=O)O)CCCC3)nc2n(CCC)c1=O [COMPOUND EX. 12, 1,3-dipropyl-8-(1-emimalonamidocyclopentyl)xanthine]
Ki (adenosine A1 receptors): 6.99 µM

CNCCCN1c2ccccc2CCc2ccccc21 [DESIPRAMINE]
% VARIATION OF MOTIONLESSNESS TIME LENGTH ([3]; 15 mg/kg i.p.): -24.50% | Δ TEMPERATURE (maximum temperature variation relative to t=0) ([4]; 16 mg/kg i.p.): +1.39 °C | ANTIAMNESIC ACTIVITY (percentage of animals that do not trespass the door) ([1]; dose 45 (unit not given), i.p. 1 h before acquisition trial): 30%

CNCCC=C1c2ccccc2CCc2ccccc21 [NORTRIPTYLINE]
Δ TEMPERATURE (maximum temperature variation relative to t=0) ([4]; 10 mg/kg i.p.): +2.34 °C

NC(=O)CN1CC(O)CC1=O (stereo not drawn) [OXIRACETAM]
% VARIATION OF MOTIONLESSNESS TIME LENGTH ([3]; 500 mg/kg i.p.): -29.07% | ANTIAMNESIC ACTIVITY (percentage of animals that do not trespass the door) ([1]; dose 1000 (os) (unit not given)): 40%

Cn1c(=O)c2[nH]cnc2n(C)c1=O [THEOPHYLLINE, 1,3-dimethylxanthine]
% VARIATION OF MOTI[…] LENGTH ([3]; 18.7 mg/kg (os)): -48.88% | Δ TEMPERATURE (maximum temperature variation relative to t=0) ([4]; 20 mg/kg i.p.): +0.81 °C | ANTIAMNESIC ACTIVITY (percentage of animals that do not trespass the door) ([1]; dose 20 (unit not given), i.p. 1 h before acquisition trial): 30% | ED50 [2]: ~3.75 mg/kg

Reference: patent US5378844A, “8-(1-aminocycloalkyl)-1,3-dialkylxanthine derivatives, preparation process and antidepressant, nootropic and psychostimulant composition thereoff” (Biomedica Foscama Industria Chimico-Farmaceutica S.p.A., priority 1992, dated 1995)
